We go through 26 molecules from patent US20090247559A1 (Exelixis, Inc., priority 2007, published 2009).

Read-outs that look alike come from different tables or passages of the source.

Assay [1] has as its target CK2 (Homo sapiens, UniProt P68400). The experiment in a line: CK2 inhibition, biochemical chemiluminescence holoenzyme assay (Kinase Glo, IC50 determination). As to conditions: Table 1 activity class; symbol given only if active; read-out: CK2 IC50 (Activity C). In a few lines:
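Holoenzyme CK2 assay; compounds pre-incubated with substrate and enzyme, then reacted 150 min at 24-27° C. Remaining ATP measured as luminescence with Kinase Glo, and IC50 derived from the signal.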
Background: Kinase-Glo reads ATP consumption through a luciferase reaction.

The target of assay [2] is PIM (PIM-1, PIM-2, and/or PIM-3). The experiment in a line: PIM-1, PIM-2 and PIM-3 inhibition, biochemical chemiluminescence assays (Kinase Glo, IC50 determination). The conditions noted are these: Table 1 activity class; PIM refers to PIM-1, PIM-2, and/or PIM-3; read-out: PIM IC50 (Activity B).
Assay [3] concerns the target CDC7 (Homo sapiens, UniProt O00311). The experiment in a line: CDC7 inhibition, biochemical chemiluminescence assay (Kinase Glo, IC50 determination). In a few lines:
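CDC7 enzyme preincubated with compound 10 min at ambient temperature, then ATP mix in Tris Base added; reaction 90 min at 24-27 °C. Remaining ATP quantified by Kinase Glo luminescence to give IC50.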

Where [4] appears, read: Table 1 activity class, symbol given only if active, read-out: CDC7 IC50 (Activity A).
Setting [5] is: compounds in Table 1, read-out: CDC7 IC50 value.

CDC7, sequence (O00311 whole entry): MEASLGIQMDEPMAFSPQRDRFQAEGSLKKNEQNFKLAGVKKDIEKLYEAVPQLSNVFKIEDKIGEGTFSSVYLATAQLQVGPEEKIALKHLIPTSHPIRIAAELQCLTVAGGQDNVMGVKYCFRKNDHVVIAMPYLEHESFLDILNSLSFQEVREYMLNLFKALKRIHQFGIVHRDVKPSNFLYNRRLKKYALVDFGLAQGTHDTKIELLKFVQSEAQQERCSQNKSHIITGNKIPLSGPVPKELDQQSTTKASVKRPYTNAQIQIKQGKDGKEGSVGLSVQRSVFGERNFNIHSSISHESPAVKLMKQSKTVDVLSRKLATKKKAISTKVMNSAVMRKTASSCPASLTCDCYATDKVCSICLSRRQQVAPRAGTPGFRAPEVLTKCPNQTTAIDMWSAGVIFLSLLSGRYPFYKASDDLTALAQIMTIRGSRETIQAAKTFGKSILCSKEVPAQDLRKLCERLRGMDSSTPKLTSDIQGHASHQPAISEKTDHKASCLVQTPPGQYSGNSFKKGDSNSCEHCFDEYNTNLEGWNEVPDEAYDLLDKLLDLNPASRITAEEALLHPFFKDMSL
CDC7, sequence (Q9UBU7 whole entry partner): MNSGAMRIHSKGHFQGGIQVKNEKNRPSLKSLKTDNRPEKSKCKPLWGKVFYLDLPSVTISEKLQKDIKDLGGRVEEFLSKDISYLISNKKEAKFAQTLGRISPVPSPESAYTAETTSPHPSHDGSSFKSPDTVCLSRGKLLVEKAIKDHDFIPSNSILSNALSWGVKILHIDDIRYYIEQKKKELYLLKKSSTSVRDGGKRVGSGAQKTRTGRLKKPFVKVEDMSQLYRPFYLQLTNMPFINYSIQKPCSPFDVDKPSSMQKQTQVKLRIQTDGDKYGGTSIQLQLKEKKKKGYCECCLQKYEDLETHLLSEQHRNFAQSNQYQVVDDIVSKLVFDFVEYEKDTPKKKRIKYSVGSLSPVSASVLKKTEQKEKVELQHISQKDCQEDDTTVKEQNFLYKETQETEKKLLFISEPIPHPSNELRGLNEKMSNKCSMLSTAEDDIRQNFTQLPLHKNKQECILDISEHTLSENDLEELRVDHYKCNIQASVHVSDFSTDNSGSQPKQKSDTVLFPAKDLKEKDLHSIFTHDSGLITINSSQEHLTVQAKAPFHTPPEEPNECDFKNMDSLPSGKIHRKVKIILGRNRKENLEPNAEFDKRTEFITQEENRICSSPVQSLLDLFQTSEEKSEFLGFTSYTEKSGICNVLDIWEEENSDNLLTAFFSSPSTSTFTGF
CK2, sequence (P68400 whole entry): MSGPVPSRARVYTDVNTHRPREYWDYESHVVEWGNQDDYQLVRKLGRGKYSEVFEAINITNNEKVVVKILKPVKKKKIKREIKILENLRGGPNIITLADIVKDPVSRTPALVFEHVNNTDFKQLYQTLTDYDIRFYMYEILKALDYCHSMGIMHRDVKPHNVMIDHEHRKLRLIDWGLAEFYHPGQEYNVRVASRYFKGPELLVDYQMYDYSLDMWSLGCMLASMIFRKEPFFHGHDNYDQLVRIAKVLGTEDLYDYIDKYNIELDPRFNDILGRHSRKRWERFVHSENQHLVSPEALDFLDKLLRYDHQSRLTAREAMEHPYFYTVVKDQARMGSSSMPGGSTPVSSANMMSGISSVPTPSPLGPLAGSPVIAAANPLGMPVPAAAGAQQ
CK2, sequence (P67870 whole entry partner): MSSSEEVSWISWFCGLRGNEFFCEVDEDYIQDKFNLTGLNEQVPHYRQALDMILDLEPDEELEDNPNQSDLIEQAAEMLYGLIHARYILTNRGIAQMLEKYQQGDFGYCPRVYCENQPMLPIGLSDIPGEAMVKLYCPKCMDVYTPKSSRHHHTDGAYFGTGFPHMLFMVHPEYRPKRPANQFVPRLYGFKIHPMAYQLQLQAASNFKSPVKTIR

As for `O=c1[nH]c([C@@H]2C[C@@H](F)CN2)nc2c1oc1ccc(Cl)cc12` [Compound 526, 8-chloro-2-[(2S,4R)-4-fluoropyrrolidin-2-yl][1]benzofuro[3,2-d]pyrimidin-4(3H)-one], the half-inhibitory concentration (IC50) in assay [1] is less than 10 µM; in assay [2], less than 10 µM; in assay [3] (setting [4]) it was less than 10 µM; in assay [3] (setting [5]), less than 0.1 µM.
Regarding `O=c1[nH]c([C@@H]2CC3CCCCC3N2)nc2c1oc1ccc(Cl)cc12` (stereo partly drawn) [Compound 529, 8-chloro-2-[(2S)-octahydro-1H-indol-2-yl][1]benzofuro[3,2-d]pyrimidin-4(3H)-one], the IC50 was less than 10 µM in assay [1]; less than 10 µM in assay [2]; less than 10 µM in assay [3] (CDC7 IC50 (Activity A), Table 1 activity class, symbol given only if active); less than 0.1 µM in assay [3] (CDC7 IC50 value, compounds in Table 1).
In the case of `O=c1[nH]c(CN2C[C@H](O)[C@@H](O)C2)nc2c1oc1ccc(Br)cc12` [Compound 333, 8-bromo-2-(((3 S,4S)-3,4-dihydroxypyrrolidin-1-yl)methyl)benzofuro[3,2-d]pyrimidin-4(3H)-one], the concentration for half-maximal inhibition (IC50) in assay [1] is less than 10 µM; in assay [2], less than 10 µM; in assay [3] (setting [4]) it was less than 10 µM; in assay [3] (setting [5]), less than 0.1 µM.
In the case of `CC(c1nc2c(oc3ccc(Br)cc32)c(=O)[nH]1)N1CC[C@H](O)C1` (stereo partly drawn) [Compound 508, 8-bromo-2-{1-[(3S)-3-hydroxypyrrolidin-1-yl]ethyl}[1]benzofuro[3,2-d]pyrimidin-4(3H)-one], the half-maximal inhibitory concentration (IC50) is less than 10 µM in assay [1], less than 10 µM in assay [2], less than 10 µM in assay [3] (setting [4]) and less than 0.1 µM in assay [3] (setting [5]).
For the molecule `O=c1[nH]c(C2CCCN2)nc2c1oc1ccc(Br)cc12` (stereo not drawn) [Compound 169, 8-bromo-2-pyrrolidin-2-yl[1]benzofuro[3,2-d]pyrimidin-4(3H)-one], the IC50 is less than 10 µM in assay [1], less than 10 µM in assay [2], less than 10 µM in assay [3] (setting [4]) and less than 0.1 µM in assay [3] (setting [5]).
Regarding `O=c1[nH]c(C2CCN(Cc3ccncc3)C2)nc2c1oc1ccc(Br)cc12` (stereo not drawn) [Compound 290, 8-bromo-2-[1-(pyridin-4-ylmethyl)pyrrolidin-3-yl][1]benzofuro[3,2-d]pyrimidin-4(3H)-one], the IC50 in assay [1], in assay [2] and in assay [3] (setting [4]) was less than 10 µM in each case.
On to `O=c1[nH]c(-c2ccc(CNC3CCCCC3)cc2Cl)nc2c1oc1ccc(Br)cc12` [Compound 427, 8-bromo-2-{2-chloro-4-[(cyclohexylamino)methyl]phenyl}[1]benzofuro[3,2-d]pyrimidin-4(3H)-one], for which the IC50 in assay [1], in assay [2] and in assay [3] (setting [4]) was less than 10 µM in each case.
For `CS(=O)(=O)c1ccc(-c2nc3c(oc4ccc(Br)cc43)c(=O)[nH]2)c(Cl)c1` [Compound 128, 8-bromo-2-[2-chloro-4-(methylsulfonyl)phenyl][1]benzofuro[3,2-d]pyrimidin-4(3H)-one], the half-maximal inhibitory concentration (IC50) in assay [1] was less than 10 µM; in assay [2], less than 10 µM; in assay [3] (setting [4]), less than 10 µM; in assay [3] (setting [5]), less than 0.1 µM.
In the case of `O=c1[nH]c(CN2CCCC(O)C2)nc2c1oc1ccc(Br)cc12` (stereo not drawn) [Compound 400, 8-bromo-2-[(3-hydroxypiperidin-1-yl)methyl][1]benzofuro[3,2-d]pyrimidin-4(3H)-one], the IC50 in assay [1] was less than 10 µM; in assay [2], less than 10 µM; in assay [3] (setting [4]) it was less than 10 µM; in assay [3] (setting [5]) it was less than 0.1 µM.
`O=c1[nH]c(-c2ccccc2I)nc2c1oc1ccc(Br)cc12` [Compound 40, 8-bromo-2-(2-iodophenyl)[1]benzofuro[3,2-d]pyrimidin-4(3H)-one]: the IC50 in assay [1], in assay [2] and in assay [3] (setting [4]) was less than 10 µM throughout.
On to `C[C@H](N)c1nc2c(oc3ccc(Br)cc32)c(=O)[nH]1` [Compound 492, 2-[(1S)-1-aminoethyl]-8-bromo[1]benzofuro[3,2-d]pyrimidin-4(3H)-one], for which the IC50 is less than 10 µM in assay [1], less than 10 µM in assay [2], less than 10 µM in assay [3] (setting [4]) and less than 0.1 µM in assay [3] (setting [5]).
On to `CN1CCC(c2nc3c(oc4ccc(Br)cc43)c(=O)[nH]2)CC1` [Compound 185, 8-Bromo-2-(1-methylpiperidin-4-yl)[1]benzofuro[3,2-d]pyrimidin-4(3H)-one], for which the IC50 in assay [1] is less than 10 µM; in assay [2], less than 10 µM; in assay [3] (setting [4]), less than 10 µM; in assay [3] (setting [5]), less than 0.1 µM.
Consider `O=C(Cc1cccnc1)Nc1ccc(-c2nc3c(oc4ccc(Br)cc43)c(=O)[nH]2)c(Cl)c1` [Compound 322, N-[4-(8-bromo-4-oxo-3,4-dihydro[1]benzofuro[3,2-d]pyrimidin-2-yl)-3-chlorophenyl]-2-pyridin-3-ylacetamide], for which the half-maximal inhibitory concentration (IC50) in assay [1], in assay [2] and in assay [3] (setting [4]) was less than 10 µM throughout.
Consider `COc1ccc2oc3c(=O)[nH]c(-c4ccc([N+](=O)[O-])cc4Cl)nc3c2c1` [Compound 124, 2-(2-chloro-4-nitrophenyl)-8-(methyloxy)[1]benzofuro[3,2-d]pyrimidin-4(3H)-one], for which the concentration for half-maximal inhibition (IC50) in assay [1], in assay [2] and in assay [3] (setting [4]) was less than 10 µM each time.
Regarding `O=C(Nc1ccc(-c2nc3c(oc4ccc(Br)cc43)c(=O)[nH]2)c(Cl)c1)c1ccco1` [Compound 321, N-[4-(8-bromo-4-oxo-3,4-dihydro[1]benzofuro[3,2-d]pyrimidin-2-yl)-3-chlorophenyl]furan-2-carboxamide], the half-inhibitory concentration (IC50) in assay [1], in assay [2] and in assay [3] (setting [4]) was less than 10 µM throughout.
For the molecule `O=c1[nH]c(CN2CCC[C@@H]2CO)nc2c1oc1ccc(Br)cc12` [Compound 344, 8-bromo-2-{[(2R)-2-(hydroxymethyl)pyrrolidin-1-yl]methyl}[1]benzofuro[3,2-d]pyrimidin-4(3H)-one], the half-inhibitory concentration (IC50) in assay [1] was less than 10 µM; in assay [2], less than 10 µM; in assay [3] (setting [4]) it was less than 10 µM; in assay [3] (setting [5]), less than 0.1 µM.
Consider `O=c1[nH]c(CN2CC[C@H](F)C2)nc2c1oc1ccc(Br)cc12` [Compound 308, 8-bromo-2-{[(3S)-3-fluoropyrrolidin-1-yl]methyl}[1]benzofuro[3,2-d]pyrimidin-4(3H)-one], for which the IC50 was less than 10 µM in assay [1], less than 10 µM in assay [2], less than 10 µM in assay [3] (setting [4]) and less than 0.1 µM in assay [3] (setting [5]).
Regarding `O=c1[nH]c(CNC2CCCCC2)nc2c1oc1ccc(Br)cc12` [Compound 504, 8-bromo-2-[(cyclohexylamino)methyl][1]benzofuro[3,2-d]pyrimidin-4(3H)-one], the IC50 in assay [1], in assay [2] and in assay [3] (setting [4]) was less than 10 µM each time.
Turning to `CNCc1ccc(-c2nc3c(oc4ccc(Br)cc43)c(=O)[nH]2)c(Cl)c1` [Compound 422, 8-bromo-2-{2-chloro-4-[(methylamino)methyl]phenyl}[1]benzofuro[3,2-d]pyrimidin-4(3H)-one], the IC50 in assay [1], in assay [2] and in assay [3] (setting [4]) was less than 10 µM throughout.
For `COc1ccc(Br)c2oc3c(=O)[nH]c(CN4CC[C@H](O)C4)nc3c12` [Compound 428, 6-bromo-2-{[(3S)-3-hydroxypyrrolidin-1-yl]methyl}-9-(methyloxy)[1]benzofuro[3,2-d]pyrimidin-4(3H)-one], the IC50 in assay [1], in assay [2] and in assay [3] (setting [4]) was less than 10 µM each time.
As to `O=C(Nc1ccc(-c2nc3c(oc4ccc(Br)cc43)c(=O)[nH]2)c(Cl)c1)c1ccncc1` [Compound 143, N-[4-(8-bromo-4-oxo-3,4-dihydro[1]benzofuro[3,2-d]pyrimidin-2-yl)-3-chlorophenyl]pyridine-4-carboxamide], the IC50 in assay [1], in assay [2] and in assay [3] (setting [4]) was less than 10 µM each time.
Regarding `O=c1[nH]c(-c2ccccc2-n2ccnc2)nc2c1oc1ccc(Br)cc12` [Compound 48, 8-bromo-2-[2-(1H-imidazol-1-yl)phenyl][1]benzofuro[3,2-d]pyrimidin-4(3H)-one], the concentration for half-maximal inhibition (IC50) in assay [1], in assay [2] and in assay [3] (setting [4]) was less than 10 µM throughout.
Turning to `O=c1[nH]c(CN2CC3CCC2C3O)nc2c1oc1ccc(Br)cc12` (racemic) [Compound 332, 8-bromo-2-((7-hydroxy-2-azabicyclo[2.2.1]heptan-2-yl)methyl)benzofuro[3,2-d]pyrimidin-4(3H)-one], the concentration for half-maximal inhibition (IC50) was less than 10 µM in assay [1], less than 10 µM in assay [2], less than 10 µM in assay [3] (setting [4]) and less than 0.1 µM in assay [3] (setting [5]).
As to `O=c1[nH]c(-c2ccc([N+](=O)[O-])cc2Cl)nc2c1oc1ccc(Br)cc12` [Compound 33, 8-Bromo-2-(2-chloro-4-nitrophenyl)[1]benzofuro[3,2-d]pyrimidin-4(3H)-one], the IC50 in assay [1], in assay [2] and in assay [3] (setting [4]) was less than 10 µM each time.
For `CN(C)CCCC(=O)Nc1ccc(-c2nc3c(oc4ccc(Br)cc43)c(=O)[nH]2)c(Cl)c1` [Compound 160, N-[4-(8-bromo-4-oxo-3,4-dihydro[1]benzofuro[3,2-d]pyrimidin-2-yl)-3-chlorophenyl]-4-(dimethylamino)butanamide], the IC50 in assay [1], in assay [2] and in assay [3] (setting [4]) was less than 10 µM in each case.
For the molecule `O=c1[nH]c(C[C@@H]2CCCNC2)nc2c1oc1ccc(Br)cc12` [Compound 305, 8-bromo-2-[(3S)-piperidin-3-ylmethyl][1]benzofuro[3,2-d]pyrimidin-4(3H)-one], the IC50 in assay [1], in assay [2] and in assay [3] (setting [4]) was less than 10 µM throughout.

The IC50 is the concentration at which inhibition is half-maximal.
